These results are taken from patent publication US8853235B2, “Polymorphs and salts of a kinase inhibitor” (Senhwa Biosciences, Inc., priority 2009, dated 2014).

Where “and” joins values, the source holds several entries; their conditions need not be identical. Equal values may be shown once. Bounds are passed on as bounds.

Holding throughout (type): physicochemical
Data set [1] is described as follows: Water solubility of compound (I) acid and its salts. The following applies: qualitative, acid form vs salts.
Data set [2] is described as follows: Storage, drying and light stability of sodium salt forms, by XRPD. The following applies: for physical change in light study by XRPD: 5 day light studies; for time in which material reverts to Form II: 5 day stability study, 40° C./75% RH; for physical change on storage by XRPD: about 80° C. over about 5 days.
Data set [3] can be described thus: Solubility in organic solvents, sodium salt vs free acid (FIG. 81). The following applies: compared with the acid.
Data set [4] in a line: Intrinsic solubility / dissolution rate of salts and polymorphs (FIGS. 82-83). The following applies: qualitative; for ease of dissolution: FIGS. 82-83.
The nature of data set [5]: Gravimetric Vapor Sorption (GVS) of sodium salt polymorphs. The following applies: for XRPD analysis of the post-GVS experiment sample: after GVS; for hydroscopicity by GVS: qualitative; for GVS desorption: sample retains water until: mass drops significantly there.
The nature of data set [6]: Determination of particle size distribution (Malvern Mastersizer). The following applies: for d50, 3 times / d90, 3 times: single measurements. As for the experimental part:
Particle size analysis of the pre-milled and post-milled TRIS and arginine salts was carried out using the Malvern Mastersizer, Model Micro Plus. Backgrounds were first measured using the appropriate vehicle solution as diluent (Dimethyl Siloxane). The samples were added drop-wise until a suitable obscuration value was achieved, and particle size distribution measured. A minimum of three analyses were made for each sample.

Data set [7] can be described thus: Micronization of Arginine and TRIS salts, physical form check. The following applies: micronized vs pre-micronized. The source says: Both Arginine and TRIS salt forms of compound I prepared as described above were micronized at Pharmaterials in preparation for PK studies. Particle size reduction was done using a Sturtevant Qualification Micronizer® (Sturtevant Inc. Hanover Mass., USA) with dry nitrogen gas as feed and grind gas. To avoid clogging of the venturi and feed nozzle, the polymorph was initially ground using a pestle and motor to break down large particles. Grinding was done at room temperature using the following settings: • Feed air pressure: 80 psi • Grind air pressure: 100 psi
The micronized polymorph was collected from the exhaust bag and put in a glass vial pending further analysis. The material was then analyzed for particle size distribution based on a method established and applied to each batch. […] The samples were also analyzed by HPLC to determine chemical purity.

Data set [8] in a line: Short term accelerated stability study of Arginine and TRIS salts. The following applies: 40° C./75% RH; for change by XRPD and DSC: 4 week period; for HPLC impurity after storage: after 4 weeks. As for the experimental part:
Arginine and TRIS salts of compound I prepared as described above were stored at 40° C./75% RH. Each sample was assessed at 0,1 week, 2 weeks and 4 weeks by XRPD, DSC and HPLC assess the stability of each salt.

Data set [9] is described as follows: Slurry of Arginine and TRIS salts to determine stability (competitive slurry). The following applies: for relative stability of the two forms: competitive slurry, MeOH/H2O (90:10) and EtOH/H2O (90:10); for form after slurry by XRPD: MeOH/H2O (90:10), temperature cycling 40° C. and RT, 4 hour periods, 5 days. An excerpt: Both Arginine and TRIS salt forms of compound I prepared as described above were slurried in 2˜4 different solvents including aqueous mixes to further determine the stability of the new salt forms. The solids were then dried and analyzed by XRPD and Raman to check for changes in physical and/or chemical form.

Turning to `O=C(O)c1ccc2c(c1)nc(Nc1cccc(Cl)c1)c1ccncc12` [Compound I, 5-(3-chlorophenylamino)benzo[c][2,6]naphthyridine-8-carboxylic acid], the water solubility entry in data set [1] is listed as “very low”.
As to `O=C(O)c1ccc2c(c1)nc(Nc1cccc(Cl)c1)c1ccncc12` [Form I, 5-(3-chlorophenylamino)benzo[c][2,6]naphthyridine-8-carboxylic acid], the “physical form on storage” value in data set [2] (dry conditions less than 30° C.) is reported as “stay amorphous”. In addition, in data set [3], the “solubility in organic solvents” value is recorded as “more soluble in organic solvents than the acid”. The “solubility relative to other polymorphs” value in data set [4] is “significantly more soluble than other polymorphs”.
Regarding `O=C(O)c1ccc2c(c1)nc(Nc1cccc(Cl)c1)c1ccncc12` [Form II, 5-(3-chlorophenylamino)benzo[c][2,6]naphthyridine-8-carboxylic acid], the form after drying result in data set [2] (80° C. for about 24 hours and prolonged drying at 60° C.) is given as “converted to amorphous material”. Further, in data set [5] (20-70% RH), the “GVS uptake of water” value is “about 12%”. In [5] (RH range of about 10% to about 70%), the GVS weight gain result is given as “about 8%”. Further, in data set [5] (about 10% to about 90% RH, repeated), the “form conversion in the GVS cycle” value is recorded as “No further form conversion was observed”. In data set [5], the “XRPD analysis of the post-GVS experiment sample” value (from here on “XRPD analysis”) is on record as “amorphous content” and the “hydroscopicity by GVS” value is reported as “moderate”. For the same compound, the “solubility relative to other polymorphs” value in data set [4] is on record as “significantly more soluble than other polymorphs”.
Regarding `O=C(O)c1ccc2c(c1)nc(Nc1cccc(Cl)c1)c1ccncc12` [Form III, 5-(3-chlorophenylamino)benzo[c][2,6]naphthyridine-8-carboxylic acid], in data set [2], the “physical change in light study by XRPD” value is listed as “no physical change”, the “time in which material reverts to Form II” value is not above 24 h and the “physical change on storage by XRPD” value is “less crystalline appearance”. For the same compound, in data set [5], the “XRPD analysis” value is reported as “amorphous content”, the “GVS desorption: sample retains water until” value is recorded as 5% and the “hydroscopicity by GVS” value is given as “hydroscopic”. In addition, the “GVS water absorbed on sorption” value in data set [5] (sorption) stood at 11%.
As to `O=C(O)c1ccc2c(c1)nc(Nc1cccc(Cl)c1)c1ccncc12` [Form IV, 5-(3-chlorophenylamino)benzo[c][2,6]naphthyridine-8-carboxylic acid], in data set [2], the “physical change in light study by XRPD” value was “no physical change”, the “time in which material reverts to Form II” value was not above 24 h and the “physical change on storage by XRPD” value was “no physical change”. Further, the form after drying entry in [2] (drying at 50° C.) is reported as “converts to another crystalline polymorph”. In addition, the “GVS uptake of water on sorption” value in data set [5] (about 20-60% RH) is “about 1%”. Also, in [5] (about 60-70% RH), the “GVS further rapid uptake” value is “approximately 8%”. Besides, in data set [5], the “XRPD analysis” value is listed as “amorphous content” and the “GVS desorption: sample retains water until” value was “about 5%”.
Turning to `O=C(O)c1ccc2c(c1)nc(Nc1cccc(Cl)c1)c1ccncc12` [Form VII, 5-(3-chlorophenylamino)benzo[c][2,6]naphthyridine-8-carboxylic acid], the “stability by XRPD” value in [2] (ambient conditions and 40° C./75% relative humidity, seven days) is recorded as “stable”.
On to `O=C(O)c1ccc2c(c1)nc(Nc1cccc(Cl)c1)c1ccncc12` [Form XXI, 5-(3-chlorophenylamino)benzo[c][2,6]naphthyridine-8-carboxylic acid], for which, in data set [6] (micronized), the “d50, Average” value came to 4.1 μm; the “d90, Average” value was determined as 8.0 μm; the “d50, 3 times” value was 3.98 μm and 4.04 μm and 4.14 μm; the “d90, 3 times” value is 7.90 μm and 7.94 μm and 8.13 μm. In data set [6] (pre-micronized), the “d50, Average” value amounted to 21.6 μm; the “d90, Average” value is 71.0 μm; the “d50, 3 times” value was 19.97 μm and 21.13 μm and 23.60 μm; the “d90, 3 times” value was 62.36 μm and 70.79 μm and 79.85 μm. In data set [7], the “DSC change after micronization” value is given as “no significant change” and the “XRPD change after micronization” value was “no significant change in crystalline structure”. Besides, in data set [8], the “change by XRPD and DSC” value was “no significant change”; the “HPLC impurity after storage” value was “no additional impurity”. Further, the ease of dissolution result in data set [4] is listed as “particularly easily dissolved”. The “relative stability of the two forms” value in data set [9] is “more stable”.
`O=C(O)c1ccc2c(c1)nc(Nc1cccc(Cl)c1)c1ccncc12` [Form XXI-B, 5-(3-chlorophenylamino)benzo[c][2,6]naphthyridine-8-carboxylic acid]: the “form after slurry by XRPD” value in [9] is “complete conversion to Form XXI”.
For `O=C(O)c1ccc2c(c1)nc(Nc1cccc(Cl)c1)c1ccncc12` [Form XXII, 5-(3-chlorophenylamino)benzo[c][2,6]naphthyridine-8-carboxylic acid], in data set [6] (micronized), the “d50, Average” value turned out to be 6.0 μm; the “d90, Average” value is 10.5 μm; the “d50, 3 times” value is 6.12 μm and 6.03 μm and 5.99 μm; the “d90, 3 times” value is 10.72 μm and 10.51 μm and 10.41 μm. In addition, in data set [6] (pre-micronized), the “d50, Average” value is listed as 10.0 μm; the “d90, Average” value stood at 23.4 μm; the “d50, 3 times” value is 9.97 μm and 9.98 μm and 10.06 μm; the “d90, 3 times” value was 23.26 μm and 23.15 μm and 23.68 μm. Moreover, in data set [7], the “DSC change after micronization” value is listed as “no significant change” and the “XRPD change after micronization” value was “no significant change in crystalline structure”. Besides, in [8], the “change by XRPD and DSC” value is on record as “no significant change”; the “HPLC impurity after storage” value is reported as “no additional impurity”. The ease of dissolution result in [4] is “particularly easily dissolved”. Moreover, the “relative stability of the two forms” value in data set [9] is listed as “more stable”.
On to `O=C(O)c1ccc2c(c1)nc(Nc1cccc(Cl)c1)c1ccncc12` [Form XXII-B, 5-(3-chlorophenylamino)benzo[c][2,6]naphthyridine-8-carboxylic acid], for which, in data set [9], the “form after slurry by XRPD” value is on record as “complete conversion to Form XXII”.
